Measurements: patent US8399490B2, “Insecticides” (Syngenta Crop Protection LLC, priority 2007, dated 2013)
Read-outs that look alike come from different tables or passages of the source.

What was measured:
[1] = tested on: Spodoptera littoralis (Egyptian cotton leafworm); experiment: Example B1: Activity against Spodoptera littoralis (larvicide, feeding/residual contact activity, preventive), cotton leaf discs; assay type: in vivo; conditions: foliar, 72 h, L1 larvae on cotton leaf discs, 3 days after treatment
From the text: Activity Against Spodoptera littoralis (Egyptian Cotton Leafworm)
(Larvicide, Feeding/Residual Contact Activity, Preventive)
The samples are checked for mortality, repellent effect, feeding behaviour, and growth regulation 3 days after treatment. In this test, compounds listed in Table P above show good activity. In particular compounds P.1, P.2, P.3, P.4, P.5, P.6, P.7, P.8, P.9, P.10, P.11, P.12, P.13, P.14, P.15, P.16, P.17, P.18, P.19, P.20, P.21, P.22, P.23, P.24, P.25, P.26, P.27, P.28, P.29, P.30, P.31, P.32, P.33, P.34, P.35, P.36, P.37, P.38, P.39, P.40, P.41, P.42, P.43, P.44, P.46, P.50, P.51, P.52, P.55, P.56, P.57, P.58, P.59, P.60, P61, P.66, P.67, P.68, P.69, P.70, P.71, P.72, P.73, P.74, P.75, P.76, P.77, P.78, P.83, P.84, P.87 and P.88 show an activity of over 80% at a concentration of 400 ppm.

[2] = tested on: Heliothis virescens (tobacco budworm); experiment: Example B2: Activity against Heliothis virescens (ovo-larvicide, feeding/contact activity, curative), eggs on artificial diet; assay type: in vivo; conditions: 96 h, 4 days incubation
Procedure: Activity Against Heliothis virescens (Tobacco Budworm) (Ovo-Larvicide, Feeding/Contact Activity, Curative) Eggs (0-24 h old) are placed in 24-well microtiter plate on artificial diet and treated with test solutions by pipetting. After an incubation period of 4 days, samples are checked for egg mortality, larval mortality, and growth regulation.

[3] = tested on: Plutella xylostella (diamond back moth); experiment: Example B3: Plutella xylostella (larvicide, feeding/residual contact activity, preventive), artificial diet MTP; assay type: in vivo; conditions: 120 h, L2 larvae on artificial diet, 5 days incubation
Procedure: (§1) Plutella xylostella (Diamond Back Moth) (Larvicide, Feeding/Residual Contact Activity, Preventive) 24-well microtiter plate (MTP) with artificial diet is treated with test solutions by pipetting. After drying, the MTP's are infested with larvae (L2) (10-15 per well). After an incubation period of 5 days, samples are checked for larval mortality, antifeedant and growth regulation.

[4] = tested on: Myzus persicae (green peach aphid); conditions: foliar, 144 h, read-out: activity
[5] = tested on: Diabrotica balteata (corn root worm); experiment: Example B4: Diabrotica balteata (larvicide, feeding/residual contact activity, preventive), artificial diet MTP; assay type: in vivo; conditions: 120 h, L2 larvae on artificial diet, 5 days incubation
Procedure: as §1, with “Diabrotica balteata (Corn Root Worm)” for “Plutella xylostella (Diamond Back Moth)”, “(6-10” for “(10-15”

[6] = tested on: Myzus persicae (green peach aphid); experiment: Example B6: Activity against Myzus persicae (mixed population, systemic/feeding activity, curative), pea seedling roots in test solution; conditions: 144 h, read-out: activity

Measured: pest or weed control at 400 ppm

CNC(=O)c1c(NC(=O)c2cc(Br)nn2-c2ncccc2Cl)c(Br)cc2c1S(=O)(=O)C(C)C2 (centres unmarked) [P.88]
> 80%: [1] | [2] | [3] | [4]

Cc1cc2c(c(C(=O)NC(C)C)c1NC(=O)c1cc(C(F)F)nn1-c1ncccc1Cl)OCO2 [P.74]
not listed: [4]
> 80%: all other assays above

CNC(=O)c1c(NC(=O)c2cc(C(F)(F)F)nn2-c2ncccc2Cl)c(Cl)cc2c1OC(F)(F)O2 [P.15]
> 80%: all assays above

CSCC(C)(C)NC(=O)c1c(NC(=O)c2cc(Cl)nn2-c2ncccc2Cl)c(Cl)cc2c1OC(F)(F)O2 [P.24]
> 80%: all assays above

CNC(=O)c1c(NC(=O)c2cc(Cl)nn2-c2ncccc2Cl)c(C)cc2c1OC(F)(F)O2 [P.29]
not listed: [4]
> 80%: all other assays above

O=C(NC1(C2CC2)CC1)c1c(NC(=O)c2cc(Br)nn2-c2ncccc2Cl)c(Cl)cc2c1OC(F)(F)O2 [P.21]
not listed: [6]
> 80%: all other assays above

CSCC(C)(C)NC(=O)c1c(NC(=O)c2cc(Cl)nn2-c2ncccc2Cl)c(C)cc2c1OC(F)(F)O2 [P.31]
> 80%: all assays above

CCNC(=O)c1c(NC(=O)c2cc(C(F)F)nn2-c2ncccc2Cl)c(Cl)cc2c1OCO2 [P.5]
> 80%: [1] | [2] | [3] | [4]

CNC(=O)c1c(NC(=O)c2cc(C(F)F)nn2-c2ncccc2Cl)c(Br)cc2c1OC(C)C2 (centres unmarked) [P.83]
not listed: [6]
> 80%: all other assays above

Cc1cc2c(c(C(=O)NC3(C4CC4)CC3)c1NC(=O)c1cc(C(F)F)nn1-c1ncccc1Cl)OCO2 [P.71]
> 80%: [1] | [2] | [3] | [4]

CC(C)NC(=O)c1c(NC(=O)c2cc(Cl)nn2-c2ncccc2Cl)c(Cl)cc2c1OC(F)(F)O2 [P.23]
> 80%: all assays above

CCNC(=O)c1c(NC(=O)c2cc(OC)nn2-c2ncccc2Cl)c(C)cc2c1OCO2 [P.76]
> 80%: [1] | [2] | [3] | [6]

COc1cc(C(=O)Nc2c(Cl)cc3c(c2C(=O)NC(C)C)OCO3)n(-c2ncccc2Cl)n1 [P.12]
> 80%: [1] | [2] | [3] | [4]

CSCC(C)(C)NC(=O)c1c(NC(=O)c2cc(Br)nn2-c2ncccc2Cl)c(C)cc2c1OC(F)(F)O2 [P.27]
> 80%: all assays above

Cc1cc2c(c(C(=O)NC(C)C)c1NC(=O)c1cc(Br)nn1-c1ncccc1Cl)OC(F)(F)O2 [P.14]
not listed: [5]
> 80%: all other assays above

COc1cc(C(=O)Nc2c(C)cc3c(c2C(=O)NC(C)C)OCO3)n(-c2ncccc2Cl)n1 [P.77]
> 80%: [1] | [2] | [3] | [6]

CC(C)NC(=O)c1c(NC(=O)c2cc(OCC(F)(F)F)nn2-c2ncccc2Cl)c(Cl)cc2c1OCO2 [P.57]
> 80%: [1] | [2] | [3] | [5]

CCNC(=O)c1c(NC(=O)c2cc(Cl)nn2-c2ncccc2Cl)c(Cl)cc2c1OCO2 [P.8]
> 80%: [1] | [2] | [3] | [5]

CNC(=O)c1c(NC(=O)c2cc(OC)nn2-c2ncccc2Cl)c(Cl)cc2c1OC(F)(F)O2 [P.37]
> 80%: [1] | [2] | [3] | [5]

Cc1cc2c(c(C(=O)NC(C)C)c1NC(=O)c1cc(C(F)(F)F)nn1-c1ncccc1Cl)OCO2 [P.67, 5-methyl-6-{[2-(3-chloro-pyridin-2-yl)-5-trifluoromethyl-2H-pyrazole-3-carbonyl]-amino}-2,4-dioxolane-benzoic acid isopropylamide]
> 80%: [1] | [2] | [3] | [5]

CCNC(=O)c1c(NC(=O)c2cc(C(F)(F)F)nn2-c2ncccc2Cl)c(Cl)cc2c1OCO2 [P.2]
> 80%: [1] | [2] | [3] | [5]

O=C(NC1(C2CC2)CC1)c1c(NC(=O)c2cc(Br)nn2-c2ncccc2Cl)c(Cl)cc2c1OCO2 [P.11]
> 80%: [1] | [2] | [3] | [5]

O=C(NC1(C2CC2)CC1)c1c(NC(=O)c2cc(C(F)(F)F)nn2-c2ncccc2Cl)c(Cl)cc2c1OC(F)(F)O2 [P.17]
> 80%: [1] | [2] | [3] | [5]

COc1cc(C(=O)Nc2c(Br)cc3c(c2C(=O)NC(C)C)OC(F)(F)O3)n(-c2ncccc2Cl)n1 [P.40]
> 80%: [1] | [2] | [3] | [5]

CC(C)NC(=O)c1c(NC(=O)c2cc(Cl)nn2-c2ncccc2Cl)c(Cl)cc2c1OCO2 [P.3]
> 80%: [1] | [2] | [3] | [5]

CC(C)NC(=O)c1c(NC(=O)c2cc(Br)nn2-c2ncccc2Cl)c(Cl)cc2c1OCO2 [P.10]
> 80%: [1] | [2] | [3] | [5]

CC(C)NC(=O)c1c(NC(=O)c2cc(Br)nn2-c2ncccc2Cl)c(Br)cc2c1OC(F)(F)O2 [P.42]
> 80%: [1] | [2] | [3] | [5]

Cc1cc2c(c(C(=O)NC(C)C)c1NC(=O)c1cc(Br)nn1-c1ncccc1Cl)OCO2 [P.75]
> 80%: [1] | [2] | [3] | [5]

COc1cc(C(=O)Nc2c(Cl)cc3c(c2C(=O)NC(C)C)C(O)CC3)n(-c2ncccc2Cl)n1 (centres unmarked) [P.66]
> 80%: [1] | [2] | [3] | [6]
